The test addresses T1, hDGAT1 (Homo sapiens, UniProt O75907).
T1 construct: made in house; host or cells: Sf9 insect cells (baculovirus); microsomal fraction
T1 sequence (O75907 1-488): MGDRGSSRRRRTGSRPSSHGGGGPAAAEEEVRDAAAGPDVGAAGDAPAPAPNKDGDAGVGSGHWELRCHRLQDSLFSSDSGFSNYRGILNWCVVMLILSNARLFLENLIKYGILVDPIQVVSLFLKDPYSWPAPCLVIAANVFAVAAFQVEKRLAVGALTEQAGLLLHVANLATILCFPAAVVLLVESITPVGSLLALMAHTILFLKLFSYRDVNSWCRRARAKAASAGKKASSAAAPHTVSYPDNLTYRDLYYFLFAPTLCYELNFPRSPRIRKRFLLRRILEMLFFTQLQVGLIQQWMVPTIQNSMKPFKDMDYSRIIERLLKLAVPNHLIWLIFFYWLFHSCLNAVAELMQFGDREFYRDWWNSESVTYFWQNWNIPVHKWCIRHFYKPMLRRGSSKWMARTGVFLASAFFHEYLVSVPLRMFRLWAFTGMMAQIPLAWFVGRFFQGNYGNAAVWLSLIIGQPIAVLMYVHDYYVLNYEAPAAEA
In words: In-vitro DGAT1 assay with hDGAT1 microsomes from Sf9 cells (14C oleoyl CoA, scintillation counting). It counts as biochemical. The following applies: for Percentage inhibition of hDGAT1: at 1 μM; for inhibition at 1 µM: read-out: Percentage inhibition of hDGAT1. As for the experimental part: Sf9 cells were grown in T25 flasks containing Graces's Insect media with 10% FBS with antibiotic (100 units/mL penicillin, 100 μg/mL streptomycin sulphate, 0.25 μg/mL Amptotericin B as Fungizone) grown in a 27° C. incubator.
hDGAT10RF expression clone (RZPDo839C09146 in pDEST vector) was obtained from RZPD, German Science Center for Genomes research, Germany. hDGAT1 bacmid DNA was obtained by transformation of the hDGAT1 expression clone into DH10Bac E. coli competent cells. Approximately 1 μg of hDGAT1 bacmid DNA was infected into Sf9 cells with Cellfectin (Invitrogen) reagent. Following infection, Sf9 cells were incubated at 27° C. for 30 min. Five hours after infection, the media was replaced with growth media containing antibiotics (100 units/mL penicillin, 100 μg/mL streptomycin sulphate, 0.25 μg/mL Amptotericin B as Fungizone) and incubated at 27° C. for 72 h. The supernatant containing the virus was centrifuged at 1500×g for 5 min, passed through 0.22 μm filter, and subsequently stored at 4° C. The virus was further amplified three more times by re-infection of Sf9 cells and the viral titer was determined by plaque assay.
Sf9 cells were seeded in spinner flasks on day 0 at a cell density of 1×10^6 and infected on day 1 with hDGAT1 baculovirus at a multiplicity of infection (MOI) of 5 and a cell density of 2×10^6. On day 3 (or 66-72 h), cells were harvested and centrifuged at 2500×g for 10 min. Pellet was resuspended in lysis buffer (100 mM sucrose, 50 mM KCl, 40 mM KH2PO4, 30 mM EDTA, pH 7.2) and passed through 21-gauge needle approximately 10 times. The mixture was centrifuged at 12,000 rpm in a Sigma 12158-H rotor at 4° C. for 30 min. The supernatant was subjected to centrifugation at 35,000 rpm in a Beckman Ti-45 rotor at 4° C. for 1 h. The resultant pellet containing the microsomes wasere resuspended overnight in 1 mL of lysis buffer and total protein concentration was estimated using Bradford Reagent. Microsomes were aliquoted and stored at −80° C.
Frozen aliquots of hDGAT1 containing microsomes were thawed (5-10 mg/mL total protein) on ice and diluted to a working stock of 1 mg/mL with DGAT Assay Buffer (DAB). The DGAT reaction assay was performed by following the procedure described in U.S. Pat. No. 6,607,893 with some modifications that are described below.
1 mL stock solution of DGAT1 substrate mixture contains 5.6 μL of ^14C oleoyl CoA (16.8 nCi) and […] of 1,2-dioleoyl-sn-glycerol (1228.5 μM) 1,2-dioleoyl-sn-glycerol stock (19.5 mM) was prepared by dissolving 25 mg of 1,2-dioleoyl-sn-glycerol (Sigma, US) in 2060 μL of acetone.
The assay was performed in duplicates in a reaction volume of 100 μL.
The reaction was started by the addition of 2.5 μL of 1 mg/mL of microsomes (iv) to the mixture of (i), (ii) and (iii), and incubated at 37° C. for 10 min. The reaction was stopped by the addition of 300 μL of Alkaline Ethanol Stop Solution Mix [AESSM; 12.5% of 100% non-denatured ethanol, 10% deionized water, 2.5% 1N NaOH, 75% stop solution (78.4% isopropanol, 19.6% n-heptane, 2% deionized water)] followed by addition of 600 μL of n-heptane. The mixture was vortexed and the triglycerides formed were extracted into the organic heptane phase. 250 μL of the heptane phase was added into 4 mL scintillation cocktail (66.72% toluene, 33.3% TritonX-100, 0.5% PPO, 0.02% POPOP) and counted on a liquid scintillation counter for 1 min. Data was collected and plotted as a function of concentration in nM versus percentage inhibition of hDGAT1 by the compounds of present invention.

Turning to `O=C(O)CCCc1ncc(-c2ccc(NC(=O)c3ccc(-c4ccccc4)cc3)cc2)s1` [Example 61, 4-(5-(4-Biphenyl-4-ylcarboxamidophenyl)thiazol-2-yl)butanoic acid], the “Percentage inhibition of hDGAT1” value is reported as “++ (>50 % Inhibition)”. As to `COc1ccc(S(=O)(=O)Nc2ccc(-c3cnc(CCCC(=O)O)s3)cc2)c(OC)c1` [Example 63, 4-(5-(4-(2,4-Dimethoxyphenylsulfonamido)phenyl)thiazol-2-yl)butanoic acid], the inhibition (usually the percentage by which the read-out fell short of the control) at 1 µM was in the range of 20 to 50%. On the same count and under the same terms, the result for `CC(C)(CC(=O)O)Cc1ncc(-c2ccc(NC(=O)Nc3cccc(C(F)(F)F)c3)cc2)s1` [Example 69, 3,3-Dimethyl-4-(5-(4-(3-(3-(trifluoromethyl)phenyl)ureido)phenyl)thiazol-2-yl)butanoic acid] reads above 50%; that for `CC(C)(CC(=O)O)Cc1ncc(-c2ccc(NC(=O)Nc3ccccc3Cl)cc2)s1` [Example 71, 4-(5-(4-(3-(2-Chlorophenyl)ureido)phenyl)thiazol-2-yl)-3,3-dimethyl butanoic acid], above 50%; that for `CC(C)(CC(=O)O)Cc1ncc(-c2ccc(NC(=O)Nc3ccc(Cl)cc3Oc3ccccc3)cc2)s1` [Example 73, 4-(5-(4-(3-(4-Chloro-2-phenoxyphenyl)ureido)phenyl)thiazol-2-yl)-3,3-dimethyl butanoic acid], above 50%.

With `CC(C)(CC(=O)O)Cc1ncc(-c2ccc(NC(=O)c3ccc(C(C)(C)C)cc3)cc2)s1` [Example 75, 4-(5-(4-(4-tert-Butylbenzamido)phenyl)thiazol-2-yl)-3,3-dimethylbutanoic acid], the inhibition at 1 µM was above 50%. Turning to `CC(C)(CC(=O)O)Cc1ncc(-c2ccc(NC(=O)c3ccc(-c4ccccc4)cc3)cc2)s1` [Example 77, 4-(5-(4-Biphenyl-4-ylcarboxamidophenyl)thiazol-2-yl)-3,3-dimethylbutanoic acid], the “Percentage inhibition of hDGAT1” value is “++ (>50 % Inhibition)”.

With `CCCCCc1ccc(C(=O)Nc2ccc(-c3cnc(CC(C)(C)CC(=O)O)s3)cc2)cc1` [Example 79, 3,3-Dimethyl-4-(5-(4-(4-pentylbenzamido)phenyl)thiazol-2-yl)butanoic acid], the inhibition at 1 µM was above 50%. The same measure, in the same setting: the result for `COc1ccc(S(=O)(=O)Nc2ccc(-c3cnc(CC(C)(C)CC(=O)O)s3)cc2)c(OC)c1` [Example 81, 4-(5-(4-(2,4-Dimethoxyphenylsulfonamido)phenyl)thiazol-2-yl)-3,3-dimethylbutanoic acid] reads 20 to 50%. As to `CC(C)(CCc1ncc(-c2ccc(NC(=O)Nc3cccc(C(F)(F)F)c3)cc2)s1)C(=O)O` [Example 88, 2,2-Dimethyl-4-(5-(4-(3-(3-(trifluoromethyl)phenyl)ureido)phenyl)thiazol-2-yl)butanoic acid], the inhibition at 1 µM is above 50%. On to `CC(C)(CCc1ncc(-c2ccc(NC(=O)Nc3ccccc3Cl)cc2)s1)C(=O)O` [Example 90, 4-(5-(4-(3-(2-Chlorophenyl)ureido)phenyl)thiazol-2-yl)-2,2-dimethylbutanoic acid], for which the inhibition at 1 µM is above 50%. On to `CC(C)(CCc1ncc(-c2ccc(NC(=O)Nc3ccc(Cl)cc3Oc3ccccc3)cc2)s1)C(=O)O` [Example 92, 4-(5-(4-(3-(4-Chloro-2-phenoxyphenyl)ureido)phenyl)thiazol-2-yl)-2,2-dimethylbutanoic acid], for which the inhibition at 1 µM was above 50%. Same read-out and setting: the result for `CC(C)(CCc1ncc(-c2ccc(NC(=O)NC3CCCCC3)cc2)s1)C(=O)O` [Example 94, 4-(5-(4-(3-Cyclohexylureido)phenyl)thiazol-2-yl)-2,2-dimethyl butanoic acid] reads above 50%. `COC(=O)C(C)(C)CCc1ncc(-c2ccc(NC(=O)Nc3ccc(F)cc3)cc2)s1` [Example 96, Methyl 4-(5-(4-(3-(4-fluorophenyl)ureido)phenyl)thiazol-2-yl-2,2-dimethyl butanoate]: the “Percentage inhibition of hDGAT1” value is “++ (>50 % Inhibition)”. On to `COc1ccc(NC(=O)Nc2ccc(-c3cnc(CCC(C)(C)C(=O)O)s3)cc2)cc1` [Example 98, 4-(5-(4-(3-(4-Methoxyphenyl)ureido)phenyl)thiazol-2-yl)-2,2-dimethyl butanoic acid], for which the inhibition at 1 µM is above 50%. Consider `CC(C)(CCc1ncc(-c2ccc(NC(=O)c3ccc(C(C)(C)C)cc3)cc2)s1)C(=O)O` [Example 106, 4-(5-(4-(4-tert-Butylbenzamido)phenyl)thiazol-2-yl)-2,2-dimethylbutanoic acid], for which the inhibition at 1 µM is above 50%. Turning to `CC(C)(CCc1ncc(-c2ccc(NC(=O)c3ccc(-c4ccccc4)cc3)cc2)s1)C(=O)O` [Example 108, 4-(5-(4-Biphenyl-4-ylcarboxamidophenyl)thiazol-2-yl)-2,2-dimethylbutanoic acid], the “Percentage inhibition of hDGAT1” value is “++ (>50 % Inhibition)”. `CC(C)(Cc1ncc(-c2ccc(NC(=O)Nc3ccc(Cl)cc3Oc3ccccc3)cc2)o1)C(=O)O` [Example 124, 3-(5-(4-(3-(4-Chloro-2-phenoxyphenyl)ureido)phenyl)oxazol-2-yl)-2,2-dimethyl propanoic acid]: the inhibition at 1 µM was above 50%. For the molecule `CC(C)(Cc1ncc(-c2ccc(NC(=O)c3ccc(-c4ccccc4)cc3)cc2)o1)C(=O)O` [Example 128, 3-(5-(4-Biphenyl-4-ylcarboxamidophenyl)oxazol-2-yl)-2,2-dimethylpropanoic acid], the “Percentage inhibition of hDGAT1” value is “+ (20-50% Inhibition)”. Regarding `O=C(Nc1ccc(-c2cnc(C3CCC(C(=O)O)CC3)s2)cc1)Nc1cccc(C(F)(F)F)c1` (stereo not drawn) [Example 134, 4-(5-(4-(3-(3-(Trifluoromethyl)phenyl)ureido)phenyl)thiazol-2-yl)cyclohexane carboxylic acid], the inhibition at 1 µM was above 50%. On to `Cc1ccc(NC(=O)Nc2ccc(-c3cnc(C4CCC(C(=O)O)CC4)s3)cc2)cc1` (stereo not drawn) [Example 136, 4-(5-(4-(3-p-Tolylureido)phenyl)thiazol-2-yl)cyclohexanecarboxylic acid], for which the inhibition at 1 µM is above 50%. Take `O=C(Nc1ccc(-c2cnc(C3CCC(C(=O)O)CC3)s2)cc1)Nc1ccc(F)cc1F` (stereo not drawn) [Example 138, 4-(5-(4-(3-(2,4-Difluorophenyl)ureido)phenyl)thiazol-2-yl)cyclohexane carboxylic acid]: the inhibition at 1 µM was above 50%. For the molecule `O=C(Nc1ccc(-c2cnc(C3CCC(C(=O)O)CC3)s2)cc1)Nc1ccccc1F` (stereo not drawn) [Example 140, 4-(5-(4-(3-(2-Fluorophenyl)ureido)phenyl)thiazol-2-yl)cyclohexanecarboxylic acid], the inhibition at 1 µM is above 50%.

For `O=C(Nc1ccc(-c2cnc(C3CCC(C(=O)O)CC3)s2)cc1)NC1CCCCC1` (stereo not drawn) [Example 142, 4-(5-(4-(3-Cyclohexylureido)phenyl)thiazol-2-yl)cyclohexanecarboxylic acid], the inhibition at 1 µM is above 50%.

These data come from patent US20130158075A1, “HETEROCYCLIC COMPOUNDS AS DGAT1 INHIBITORS” (PIRAMAL ENTERPRISES LIMITED, priority 2010, published 2013).
